Here are results for 14 molecules from ChEMBL document CHEMBL1909046, “DrugMatrix in vitro pharmacology data”.

For one data set, the target named is Adenosine receptor A2a (Homo sapiens, UniProt P29274). Kind of data set: DRUGMATRIX: Adenosine A2A radioligand binding (ligand: […]). Type of data set: cell membranes, HEK293, Membrane. Conditions: hek293; Not Active = under 50% inhibition at 10 µM.
The target of data set [1] is T1, C-X-C chemokine receptor type 1 (Homo sapiens, UniProt P25024). Further: in other assays of this panel Not Active means under 50% inhibition at 10 µM.
T1 sequence (P25024 whole entry): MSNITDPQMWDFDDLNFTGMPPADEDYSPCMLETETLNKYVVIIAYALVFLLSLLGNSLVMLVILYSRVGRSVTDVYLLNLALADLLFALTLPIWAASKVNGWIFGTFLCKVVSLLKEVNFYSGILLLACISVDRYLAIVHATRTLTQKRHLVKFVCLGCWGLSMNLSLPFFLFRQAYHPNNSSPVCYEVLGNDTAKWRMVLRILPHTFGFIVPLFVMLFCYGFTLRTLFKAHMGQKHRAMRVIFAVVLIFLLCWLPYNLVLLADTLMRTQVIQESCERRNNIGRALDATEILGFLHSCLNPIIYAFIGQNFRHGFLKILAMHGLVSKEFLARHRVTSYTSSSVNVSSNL

The target of another data set is T2, Estrogen receptor (Homo sapiens, UniProt P03372). Further: in other assays of this panel Not Active means under 50% inhibition at 10 µM.
T2 sequence (P03372 whole entry): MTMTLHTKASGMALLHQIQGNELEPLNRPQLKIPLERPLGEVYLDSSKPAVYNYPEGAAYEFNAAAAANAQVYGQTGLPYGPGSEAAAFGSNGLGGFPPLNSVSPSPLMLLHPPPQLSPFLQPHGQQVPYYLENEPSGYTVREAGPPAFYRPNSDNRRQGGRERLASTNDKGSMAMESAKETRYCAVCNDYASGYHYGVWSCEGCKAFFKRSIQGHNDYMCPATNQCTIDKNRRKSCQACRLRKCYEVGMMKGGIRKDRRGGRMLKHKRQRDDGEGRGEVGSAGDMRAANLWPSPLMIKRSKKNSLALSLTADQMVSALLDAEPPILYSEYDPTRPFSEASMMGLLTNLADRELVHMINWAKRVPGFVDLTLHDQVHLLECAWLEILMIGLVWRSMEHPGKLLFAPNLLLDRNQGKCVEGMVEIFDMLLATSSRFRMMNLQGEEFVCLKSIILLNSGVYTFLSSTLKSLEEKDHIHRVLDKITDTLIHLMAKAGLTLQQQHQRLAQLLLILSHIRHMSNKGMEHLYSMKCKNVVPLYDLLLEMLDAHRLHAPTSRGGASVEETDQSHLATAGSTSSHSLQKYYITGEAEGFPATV
The settings on record: sf9.

The target of data set [2] is 5-hydroxytryptamine receptor 4 (Cavia porcellus, UniProt O70528). Type of data set: cell membranes, Dunkin-Hartley, Striatum, Membrane. Further: in other assays of this panel Not Active means under 50% inhibition at 10 µM.
The target in the next data set is Nitric oxide synthase 1 (Rattus norvegicus, UniProt P29476). Type of data set: tissue-based, Cerebellum. Further: in other assays of this panel Not Active means under 50% inhibition at 10 µM.
The target in a further data set is Cytochrome P450 3A4 (Homo sapiens, UniProt P08684). Conditions: bti-tn-5b1-4. Further: in other assays of this panel Not Active means under 50% inhibition at 10 µM.
Data set [3] addresses T3, Vasoactive intestinal polypeptide receptor 1 (Homo sapiens, UniProt P32241).
T3 sequence (P32241 whole entry): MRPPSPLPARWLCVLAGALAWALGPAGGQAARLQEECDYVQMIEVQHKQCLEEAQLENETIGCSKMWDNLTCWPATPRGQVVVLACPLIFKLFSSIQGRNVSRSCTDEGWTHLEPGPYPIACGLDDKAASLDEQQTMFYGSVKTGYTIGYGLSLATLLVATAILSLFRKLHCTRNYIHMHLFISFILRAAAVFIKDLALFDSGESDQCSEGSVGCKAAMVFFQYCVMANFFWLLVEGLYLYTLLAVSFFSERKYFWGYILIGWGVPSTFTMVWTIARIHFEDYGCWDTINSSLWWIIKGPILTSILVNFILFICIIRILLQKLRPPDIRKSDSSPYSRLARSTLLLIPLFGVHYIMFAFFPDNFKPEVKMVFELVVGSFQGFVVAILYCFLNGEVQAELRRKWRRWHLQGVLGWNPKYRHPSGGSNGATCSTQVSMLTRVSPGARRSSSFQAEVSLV
Type of data set: cell membranes, Membrane. Conditions: ht-29.

Data set [4] concerns the target T4, Muscarinic acetylcholine receptor M5 (Homo sapiens, UniProt P08912). Further: in other assays of this panel Not Active means under 50% inhibition at 10 µM.
T4 sequence (P08912 whole entry): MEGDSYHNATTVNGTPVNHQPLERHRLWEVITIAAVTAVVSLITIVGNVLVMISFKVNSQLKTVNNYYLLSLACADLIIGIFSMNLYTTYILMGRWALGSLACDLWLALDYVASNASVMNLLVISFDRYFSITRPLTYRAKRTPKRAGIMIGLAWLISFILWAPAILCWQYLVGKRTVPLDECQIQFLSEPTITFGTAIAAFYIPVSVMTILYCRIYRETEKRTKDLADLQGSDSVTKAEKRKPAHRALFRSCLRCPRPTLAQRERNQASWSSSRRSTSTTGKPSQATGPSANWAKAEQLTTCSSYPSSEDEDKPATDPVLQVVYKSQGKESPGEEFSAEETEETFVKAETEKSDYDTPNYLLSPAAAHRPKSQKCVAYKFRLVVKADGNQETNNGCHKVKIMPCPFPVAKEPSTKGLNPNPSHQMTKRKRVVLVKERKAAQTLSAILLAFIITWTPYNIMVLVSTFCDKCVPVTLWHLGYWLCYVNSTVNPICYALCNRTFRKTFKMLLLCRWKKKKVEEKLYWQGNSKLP
In kind it is cell membranes, CHO-K1, Membrane.

Cytochrome P450 3A4, sequence (P08684 whole entry): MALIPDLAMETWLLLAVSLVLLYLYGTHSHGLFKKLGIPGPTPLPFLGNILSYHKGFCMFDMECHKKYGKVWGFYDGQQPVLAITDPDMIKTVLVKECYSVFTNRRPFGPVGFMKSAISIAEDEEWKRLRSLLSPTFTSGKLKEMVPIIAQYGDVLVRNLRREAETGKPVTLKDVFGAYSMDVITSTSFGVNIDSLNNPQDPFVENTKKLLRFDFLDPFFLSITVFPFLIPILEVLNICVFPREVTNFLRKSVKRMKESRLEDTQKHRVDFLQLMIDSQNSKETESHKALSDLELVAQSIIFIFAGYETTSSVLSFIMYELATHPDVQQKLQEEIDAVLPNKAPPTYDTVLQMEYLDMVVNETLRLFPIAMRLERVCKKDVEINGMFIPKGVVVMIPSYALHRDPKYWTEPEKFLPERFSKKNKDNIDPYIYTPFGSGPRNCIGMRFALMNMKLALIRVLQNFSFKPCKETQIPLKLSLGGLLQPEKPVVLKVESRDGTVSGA
5-hydroxytryptamine receptor 4, sequence (O70528 whole entry): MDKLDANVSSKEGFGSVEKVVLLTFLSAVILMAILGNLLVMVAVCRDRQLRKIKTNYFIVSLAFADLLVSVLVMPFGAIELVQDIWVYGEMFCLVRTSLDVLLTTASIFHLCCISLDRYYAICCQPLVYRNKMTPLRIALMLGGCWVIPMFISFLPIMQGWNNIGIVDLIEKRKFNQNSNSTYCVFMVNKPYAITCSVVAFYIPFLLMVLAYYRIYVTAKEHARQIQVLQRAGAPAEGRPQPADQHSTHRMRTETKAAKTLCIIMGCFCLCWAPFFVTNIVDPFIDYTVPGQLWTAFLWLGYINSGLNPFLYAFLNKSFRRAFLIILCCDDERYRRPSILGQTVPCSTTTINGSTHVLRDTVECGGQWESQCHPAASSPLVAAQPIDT
Nitric oxide synthase 1, sequence (P29476 whole entry): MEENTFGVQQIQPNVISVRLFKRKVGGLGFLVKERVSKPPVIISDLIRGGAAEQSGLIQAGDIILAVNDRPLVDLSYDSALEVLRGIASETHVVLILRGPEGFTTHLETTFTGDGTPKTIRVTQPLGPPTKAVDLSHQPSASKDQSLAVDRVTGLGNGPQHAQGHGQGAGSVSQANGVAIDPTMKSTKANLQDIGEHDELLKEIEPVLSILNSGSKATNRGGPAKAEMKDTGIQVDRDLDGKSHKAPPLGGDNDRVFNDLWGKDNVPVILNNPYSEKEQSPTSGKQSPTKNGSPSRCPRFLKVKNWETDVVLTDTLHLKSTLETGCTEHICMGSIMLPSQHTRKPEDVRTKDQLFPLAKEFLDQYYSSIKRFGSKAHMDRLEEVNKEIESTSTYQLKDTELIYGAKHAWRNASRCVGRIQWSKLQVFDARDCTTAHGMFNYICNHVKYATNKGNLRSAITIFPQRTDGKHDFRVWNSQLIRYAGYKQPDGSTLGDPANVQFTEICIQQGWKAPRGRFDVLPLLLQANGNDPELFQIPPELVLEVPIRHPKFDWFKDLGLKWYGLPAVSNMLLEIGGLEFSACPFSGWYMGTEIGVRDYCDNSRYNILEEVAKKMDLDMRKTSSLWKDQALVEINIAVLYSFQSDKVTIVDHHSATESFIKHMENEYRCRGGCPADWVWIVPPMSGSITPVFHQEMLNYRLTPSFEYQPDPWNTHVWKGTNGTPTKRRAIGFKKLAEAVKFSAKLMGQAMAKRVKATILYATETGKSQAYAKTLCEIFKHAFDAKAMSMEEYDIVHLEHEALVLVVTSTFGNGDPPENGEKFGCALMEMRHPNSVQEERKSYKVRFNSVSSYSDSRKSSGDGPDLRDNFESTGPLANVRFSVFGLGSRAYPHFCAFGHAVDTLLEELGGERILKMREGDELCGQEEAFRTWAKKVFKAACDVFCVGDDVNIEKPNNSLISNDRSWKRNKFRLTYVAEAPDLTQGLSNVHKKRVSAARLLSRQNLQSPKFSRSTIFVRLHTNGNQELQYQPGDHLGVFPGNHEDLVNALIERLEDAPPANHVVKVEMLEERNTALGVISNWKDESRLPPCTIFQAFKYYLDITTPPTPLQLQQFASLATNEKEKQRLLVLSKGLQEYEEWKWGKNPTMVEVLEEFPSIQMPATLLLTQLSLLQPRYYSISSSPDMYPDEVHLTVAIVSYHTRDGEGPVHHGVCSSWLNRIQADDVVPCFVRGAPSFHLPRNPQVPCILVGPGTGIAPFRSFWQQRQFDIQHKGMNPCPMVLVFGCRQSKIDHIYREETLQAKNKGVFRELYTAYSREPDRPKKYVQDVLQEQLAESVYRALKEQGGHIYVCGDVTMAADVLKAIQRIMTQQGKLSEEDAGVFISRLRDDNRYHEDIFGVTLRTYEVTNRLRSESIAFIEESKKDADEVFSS
Adenosine receptor A2a, sequence (P29274 whole entry): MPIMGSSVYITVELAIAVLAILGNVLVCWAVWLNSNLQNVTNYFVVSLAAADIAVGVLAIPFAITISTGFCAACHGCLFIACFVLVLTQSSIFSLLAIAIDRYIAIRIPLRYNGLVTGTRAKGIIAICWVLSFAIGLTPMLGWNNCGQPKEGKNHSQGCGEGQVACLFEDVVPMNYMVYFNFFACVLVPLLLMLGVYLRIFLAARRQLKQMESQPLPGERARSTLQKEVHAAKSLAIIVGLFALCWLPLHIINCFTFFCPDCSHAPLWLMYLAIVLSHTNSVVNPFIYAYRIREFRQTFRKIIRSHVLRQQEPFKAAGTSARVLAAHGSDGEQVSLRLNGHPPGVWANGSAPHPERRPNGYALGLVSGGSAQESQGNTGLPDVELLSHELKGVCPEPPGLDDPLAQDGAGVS

`Cc1cccc(C)c1NC(=O)C1CCCCN1C` (configuration not stated) [MEPIVACAINE]: the IC50 result (at Adenosine receptor A2a; in data set [1]; on Estrogen receptor; in data set [2]; against Nitric oxide synthase 1; on Cytochrome P450 3A4) was “Not Active” in each case. The IC50 result in data set [3] and in data set [4] (cho-k1) was “Not Active” each time. Moreover, the Ki result on Cytochrome P450 3A4 was “Not Active”.
For the molecule `CC(C)(C)NCC(O)COc1cccc2c1CC(O)C(O)C2` (configuration not stated) [NADOLOL], the IC50 entry (at Adenosine receptor A2a; in data set [1]; against Estrogen receptor; in data set [2]; against Nitric oxide synthase 1; on Cytochrome P450 3A4) was “Not Active” in each case. Further, the 50% inhibitory concentration (IC50) entry in data set [3] and in data set [4] (cho-k1) was “Not Active” each time. Besides, the Ki entry at Cytochrome P450 3A4 is listed as “Not Active”.
As for `C[C@]12CC[C@H]3[C@@H](CCC4=CC(=O)CC[C@@H]43)[C@@H]1CC[C@@H]2O` [NANDROLONE], the IC50 entry (at Adenosine receptor A2a; in data set [1]; at Estrogen receptor; in data set [2]; against Nitric oxide synthase 1; on Cytochrome P450 3A4) was “Not Active” in each case. Further, the IC50 result in data set [3] and in data set [4] (cho-k1) was “Not Active” in each case. Moreover, the Ki entry at Cytochrome P450 3A4 is “Not Active”.
`CN(C)C(=O)Oc1cccc([N+](C)(C)C)c1.[Br-]` [NEOSTIGMINE BROMIDE]: the IC50 entry (on Adenosine receptor A2a; in data set [1]; at Estrogen receptor; in data set [2]; against Nitric oxide synthase 1; against Cytochrome P450 3A4) was “Not Active” in each case. The IC50 entry in data set [3] and in data set [4] (cho-k1) was “Not Active” in each case. Moreover, the Ki entry at Cytochrome P450 3A4 is “Not Active”.
For the molecule `NC(=O)c1cccnc1` [NIACINAMIDE], the 50% inhibitory concentration (IC50) entry (at Adenosine receptor A2a; in data set [1]; on Estrogen receptor; in data set [2]; against Nitric oxide synthase 1; at Cytochrome P450 3A4) was “Not Active” throughout. In addition, the 50% inhibitory concentration (IC50) entry in data set [3] and in data set [4] (cho-k1) was “Not Active” each time. Further, the Ki entry on Cytochrome P450 3A4 is “Not Active”.
Consider `CN1C(=O)CN=C(c2ccccc2)c2cc([N+](=O)[O-])ccc21` [NIMETAZEPAM], for which the IC50 result (at Adenosine receptor A2a; in data set [1]; against Estrogen receptor; in data set [2]; against Nitric oxide synthase 1; on Cytochrome P450 3A4) was “Not Active” each time. Also, the IC50 entry in data set [3] and in data set [4] (cho-k1) was “Not Active” throughout. Besides, at Cytochrome P450 3A4, the Ki result is “Not Active”.
In the case of `C[C@@H]1O[C@@H](O[C@H]2C[C@@H](O)[C@]3(CO)[C@H]4[C@H](O)C[C@]5(C)[C@@H](C6=CC(=O)OC6)CC[C@]5(O)[C@@H]4CC[C@]3(O)C2)[C@H](O)[C@H](O)[C@H]1O` [OUABAIN], the IC50 entry (at Adenosine receptor A2a; in data set [1]; against Estrogen receptor; in data set [2]; on Nitric oxide synthase 1; at Cytochrome P450 3A4) was “Not Active” each time. Further, the IC50 result in data set [3] and in data set [4] (cho-k1) was “Not Active” throughout. The Ki entry at Cytochrome P450 3A4 is on record as “Not Active”.
Regarding `COc1ccnc(C[S+]([O-])c2nc3ccc(OC(F)F)cc3[nH]2)c1OC` (configuration not stated) [PANTOPRAZOLE], the concentration for half-maximal inhibition (IC50) entry (on Adenosine receptor A2a; in data set [1]; against Estrogen receptor; in data set [2]; against Nitric oxide synthase 1; at Cytochrome P450 3A4) was “Not Active” throughout. Moreover, the 50% inhibitory concentration (IC50) result in data set [3] and in data set [4] (cho-k1) was “Not Active” in each case. Moreover, the Ki result at Cytochrome P450 3A4 is recorded as “Not Active”.
As to `CCc1ccc(CCOc2ccc(CC3SC(=O)NC3=O)cc2)nc1` (configuration not stated) [PIOGLITAZONE], the IC50 result (on Adenosine receptor A2a; in data set [1]; against Estrogen receptor; in data set [2]; on Nitric oxide synthase 1; against Cytochrome P450 3A4) was “Not Active” throughout. The IC50 entry in data set [3] and in data set [4] (cho-k1) was “Not Active” in each case. The Ki entry at Cytochrome P450 3A4 is “Not Active”.
Regarding `CCCNC(C)C(=O)Nc1ccccc1C` (configuration not stated) [PRILOCAINE], the IC50 entry (on Adenosine receptor A2a; in data set [1]; against Estrogen receptor; in data set [2]; at Nitric oxide synthase 1; against Cytochrome P450 3A4) was “Not Active” each time. For the same molecule, the IC50 result in data set [3] and in data set [4] (cho-k1) was “Not Active” in each case. For the same molecule, the Ki entry on Cytochrome P450 3A4 is given as “Not Active”.
On to `CCN(CC)CCCC(C)Nc1c2ccc(Cl)cc2nc2ccc(OC)cc12` (configuration not stated) [QUINACRINE], for which the IC50 result (on Adenosine receptor A2a; in data set [1]; against Estrogen receptor; in data set [2]; at Nitric oxide synthase 1; against Cytochrome P450 3A4) was “Not Active” each time. Moreover, the figures for the IC50 entry in data set [3] and in data set [4] (read-out: IC50) were “Not Active” and 3.74 µM, respectively. Besides, the Ki entry at Cytochrome P450 3A4 is “Not Active”; in data set [4] (read-out: Ki), 2.68 µM.
`C[C@]12C=CC(=O)C=C1CC[C@H]1[C@@H]3C[C@@H](O)[C@](O)(C(=O)CO)[C@@]3(C)C[C@H](O)[C@@]12F` [TRIAMCINOLONE]: the half-inhibitory concentration (IC50) result (at Adenosine receptor A2a; in data set [1]; on Estrogen receptor; in data set [2]; on Nitric oxide synthase 1; against Cytochrome P450 3A4) was “Not Active” each time. Besides, the IC50 result in data set [3] and in data set [4] (cho-k1) was “Not Active” throughout. Also, the Ki result on Cytochrome P450 3A4 is reported as “Not Active”.
For `CC[C@]1(O)C[C@@H]2CN(CCc3c([nH]c4ccccc34)[C@@](C(=O)OC)(c3cc4c(cc3OC)N(C)[C@H]3[C@@](O)(C(N)=O)[C@H](O)[C@]5(CC)C=CCN6CC[C@]43[C@@H]65)C2)C1` [VINDESINE], the IC50 result (at Adenosine receptor A2a; in data set [1]; against Estrogen receptor; in data set [2]; against Nitric oxide synthase 1; against Cytochrome P450 3A4) was “Not Active” in each case. The half-inhibitory concentration (IC50) result in data set [3] and in data set [4] (cho-k1) was “Not Active” throughout. Further, the Ki result on Cytochrome P450 3A4 was “Not Active”.
Turning to `CCN(C(C)=O)c1cccc(-c2ccnc3c(C#N)cnn23)c1` [ZALEPLON], the IC50 result (on Adenosine receptor A2a; in data set [1]; against Estrogen receptor; in data set [2]; on Nitric oxide synthase 1; against Cytochrome P450 3A4) was “Not Active” in each case. Besides, the half-maximal inhibitory concentration (IC50) result in data set [3] and in data set [4] (cho-k1) was “Not Active” throughout. Moreover, the Ki entry on Cytochrome P450 3A4 is “Not Active”.

As usually defined, the IC50 is the concentration at which inhibition is half-maximal. The Ki is a measure of affinity in units of concentration, obtained from inhibition or displacement.
